pKi: −log10 of the molar value.
Legend:
Type in all cases: biochemical
[1] = biological target: T1, JAK1 (Homo sapiens, UniProt P23458); test: JAK1 inhibition (Table 4); settings: read-out: JAK1 Ki
T1 construct: made in house; host or cells: SF9 insect cells (baculovirus)

[2] = biological target: T2, JAK2 (Homo sapiens, UniProt O60674); test: JAK2 inhibition (Table 4); settings: read-out: JAK2 Ki
T2 construct: made in house; host or cells: SF9 insect cells (baculovirus)

[3] = biological target: T3, JAK3 (Homo sapiens, UniProt P52333); test: JAK3 inhibition (Table 4); settings: read-out: JAK3 Ki
T3 construct: made in house; host or cells: SF9 insect cells (baculovirus)
T3 sequence (P52333 783-1124): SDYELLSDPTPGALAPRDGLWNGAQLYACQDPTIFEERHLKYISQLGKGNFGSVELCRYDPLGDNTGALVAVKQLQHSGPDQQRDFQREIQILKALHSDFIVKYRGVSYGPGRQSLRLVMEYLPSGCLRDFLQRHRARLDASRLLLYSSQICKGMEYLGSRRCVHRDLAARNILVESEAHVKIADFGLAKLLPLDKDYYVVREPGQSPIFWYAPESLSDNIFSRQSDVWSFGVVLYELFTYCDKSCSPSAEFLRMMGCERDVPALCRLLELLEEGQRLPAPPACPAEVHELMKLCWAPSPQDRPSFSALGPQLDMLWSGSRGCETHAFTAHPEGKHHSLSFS

[4] = biological target: T4, TYK2 (Homo sapiens, UniProt P29597); test: TYK2 inhibition (Table 4)
T4 construct: made in house; host or cells: SF9 insect cells (baculovirus)
T4 sequence (P29597 873-1187): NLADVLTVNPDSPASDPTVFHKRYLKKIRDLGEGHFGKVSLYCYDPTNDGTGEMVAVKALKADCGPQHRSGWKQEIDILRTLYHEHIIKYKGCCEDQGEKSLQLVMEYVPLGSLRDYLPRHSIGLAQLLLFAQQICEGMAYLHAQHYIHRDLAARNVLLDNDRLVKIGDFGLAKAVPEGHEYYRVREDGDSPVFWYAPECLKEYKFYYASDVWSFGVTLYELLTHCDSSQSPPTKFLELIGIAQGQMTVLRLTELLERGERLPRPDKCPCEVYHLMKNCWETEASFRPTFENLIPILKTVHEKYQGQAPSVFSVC

T1 sequence (P23458 852-1154): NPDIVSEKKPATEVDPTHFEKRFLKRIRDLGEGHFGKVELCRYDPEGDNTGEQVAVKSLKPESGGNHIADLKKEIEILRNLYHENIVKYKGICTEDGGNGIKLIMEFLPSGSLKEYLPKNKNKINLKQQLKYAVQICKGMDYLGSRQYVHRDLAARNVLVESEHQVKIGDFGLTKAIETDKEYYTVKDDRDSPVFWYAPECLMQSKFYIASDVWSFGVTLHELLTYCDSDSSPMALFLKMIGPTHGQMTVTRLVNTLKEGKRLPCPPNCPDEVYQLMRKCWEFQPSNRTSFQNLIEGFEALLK
T2 sequence (O60674 812-1132): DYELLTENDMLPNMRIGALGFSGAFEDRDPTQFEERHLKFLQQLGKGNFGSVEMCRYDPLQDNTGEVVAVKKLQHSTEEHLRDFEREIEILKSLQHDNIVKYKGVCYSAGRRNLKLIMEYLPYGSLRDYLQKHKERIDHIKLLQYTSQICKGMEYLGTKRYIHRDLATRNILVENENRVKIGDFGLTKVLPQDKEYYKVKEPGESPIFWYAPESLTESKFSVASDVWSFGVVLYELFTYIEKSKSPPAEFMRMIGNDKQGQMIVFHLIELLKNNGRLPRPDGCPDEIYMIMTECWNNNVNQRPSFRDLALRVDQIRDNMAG

`O=C(Cc1nc2cnc3[nH]ccc3c2n1C1CCCOC1)N1CCC(O)CC1` (racemic) [Example 986, 1-(4-Hydroxy-piperidin-1-yl)-2-[1-(tetrahydro-pyran-3-yl)-1,6-dihydro-1,3,5,6-tetraaza-as-indacen-2-yl]-ethanone] was tested, and the pKi [1] was 7.76, the pKi [2] was 6.50 and the pKi [3] was 6.77. It also gave a pKi [4] of 6.73.

Compound `CC(=O)N1CCC(c2nc3cnc4[nH]ccc4c3n2C2CCN(C(C)CC#N)CC2)C1` (racemic) [Example 397, 3-{4-[2-(1-Acetyl-pyrrolidin-3-yl)-6H-1,3,5,6-tetraaza-as-indacen-1-yl]-piperidin-1-yl}-butyronitrile] has a pKi [1] of 7.52, a pKi [2] of 7.20 and a pKi [3] of 6.94. The pKi [4] was 6.57.

With `OC1CCCC(n2cnc3cnc4[nH]ccc4c32)C1` (single isomer, unassigned) [Example 562, 3-(6H-1,3,5,6-Tetraaza-as-indacen-1-yl)-cyclohexanol] the pKi [1] was 8.34, the pKi [2] was 8.12 and the pKi [3] was 8.23. The pKi [4] was 7.92.

Compound `C[C@@H](O)c1nc2cnc3[nH]ccc3c2n1C1CCN(c2cccc(C#N)n2)CC1` [Example 702, 4-[2-((R)-1-Hydroxy-ethyl)-6H-1,2,3,5,6-tetraaza-as-indacen-1-yl]-3,4,5,6-tetrahydro-2H-[1,2]bipyridinyl-6′-carbonitrile] has a pKi [1] of 8.43, a pKi [2] of 7.58 and a pKi [3] of 7.39. The pKi [4] was 7.63.

In the case of `Cc1nc2cnc3[nH]ccc3c2n1[C@H]1CC[C@H](NCC(F)(F)F)CC1` [Example 591, Trans[4-(2-methyl-6H-1,2,3,5,6-tetraaza-as-indacen-1-yl)-cyclohexyl]-(2,2,2-trifluoro-ethyl)-amine], the pKi [1] was 9.19, the pKi [2] was 8.73 and the pKi [3] was 7.89. It also gave a pKi [4] of 8.60.

For `O=C(c1cccnc1)N1CCC(n2cnc3cnc4[nH]ccc4c32)CC1` [Example 34, Pyridin-3-yl-[4-(6H-1,3,5,6-tetraaza-as-indacen-1-yl)-piperidin-1-yl]methanone], the pKi [1] was 7.50, the pKi [2] was 7.20 and the pKi [3] was 5.97. It also gave a pKi [4] of 6.37.

Compound `Cc1noc(C)c1S(=O)(=O)N1CCC(n2cnc3cnc4[nH]ccc4c32)CC1` [Example 447, 1-[1-(3,5-Dimethyl-isoxazole-4-sulfonyl)-piperidin-4-yl]-1,6-dihydro-1,3,5,6-tetraaza-as-indacene] has a pKi [1] of 7.79, a pKi [2] of 7.67 and a pKi [3] of 6.32. It also gave a pKi [4] of 7.07.

In the case of `CC(=O)N1CCN(C(=O)Cc2nc3cnc4[nH]ccc4c3n2C2CCCOC2)CC1` (racemic) [Example 977, 1-(4-Acetyl-piperazin-1-yl)-2-[1-(tetrahydro-pyran-3-yl)-1,6-dihydro-1,3,5,6-tetraaza-as-indacen-2-yl]-ethanone], the pKi [1] was 7.55, the pKi [2] was 6.44 and the pKi [3] was 6.71. The pKi [4] was 6.68.

For `Cc1nc2cnc3[nH]ccc3c2n1C1CCN(CCF)CC1` [Example 513, 1-[1-(2-Fluoro-ethyl)-piperidin-4-yl]-2-methyl-1,6-dihydro-1,3,5,6-tetraaza-as-indacene], the pKi [1] was 9.08, the pKi [2] was 8.67 and the pKi [3] was 8.12. For the same compound, the pKi [4] was 8.16.

In the case of `Cc1nc2cnc3[nH]ccc3c2n1C1CCC(NS(C)(=O)=O)C1` (racemic) [Example 721, N-[3-(2-methyl-6H-1,3,5,6-tetraaza-as-indacen-1-yl)-cyclopentyl]-methanesulfonamide], the pKi [1] was 8.96, the pKi [2] was 8.39 and the pKi [3] was 7.85. It also gave a pKi [4] of 7.87.

`O=C(Cc1nc2cnc3[nH]ccc3c2n1C1CCN(Cc2ccccc2)CC1)N1CC(F)C1` [Example 258, 2-[1-(1-Benzyl-piperidin-4-yl)-1,6-dihydro-1,3,5,6-tetraaza-as-indacen-2-yl)-1-(3-fluoro-azetidin-1-yl)-ethanone] gave a pKi [1] of 7.54, a pKi [2] of 6.90 and a pKi [3] of 7.84. For the same compound, the pKi [4] was 5.74.

For `C[C@@H](O)c1nc2cnc3[nH]ccc3c2n1[C@@H]1COCCC1(F)F` [Example 1012, (R)-1-[1-((R)-4,4-Difluoro-tetrahydro-pyran-3-yl)-1,6-dihydro-1,3,5,6-tetraaza-as-indacen-2-yl]-ethanol], the pKi [1] was 8.03, the pKi [2] was 6.99 and the pKi [3] was 7.12. The pKi [4] was 7.34.

`Cc1nc2cnc3[nH]ccc3c2n1C1CCC(NC(=O)N(C)CC(F)F)CC1` (stereo not shown) [Example 750, 1-(2,2-difluoro-ethyl)-1-methyl-3-[4-(2-methyl-6H-1,3,5,6-tetraaza-as-indacen-1-yl)-cyclohexyl]-urea] was tested, and the pKi [1] was 8.32, the pKi [2] was 7.66 and the pKi [3] was 7.75. The pKi [4] was 6.89.

With `CC(O)c1nc2cnc3[nH]ccc3c2n1C1CC2CCC1O2` (single isomer, unassigned) [Example 905, (o)-1-[1-(7-Oxa-bicyclo[2.2.1]hept-2-yl)-1,6-dihydro-1,3,5,6-tetraaza-as-indacen-2-yl]-ethanol] the pKi [1] was 7.83, the pKi [2] was 7.02 and the pKi [3] was 6.89. The pKi [4] was 7.24.

For `CN(C)CCC(=O)N1CCC(n2cnc3cnc4[nH]ccc4c32)CC1` [Example 439, 3-Dimethylamino-1-[4-(6H-1,3,5,6-tetraaza-as-indacen-1-yl)-piperidin-1-yl]-propan-1-one], the pKi [1] was 7.07, the pKi [2] was 6.36 and the pKi [3] was 5.96. For the same compound, the pKi [4] was 5.70.

Work on `C[C@@H](O)c1nc2cnc3[nH]ccc3c2n1[C@H]1CC[C@@H](NCC(F)F)C1` [Example 1005, (R)-1-{1-[(1S,3R)-3-(2,2-Difluoro-ethylamino)-cyclopentyl]-1,6-dihydro-1,3,5,6-tetraaza-as-indacen-2-yl}-ethanol] yielded a pKi [1] of 8.63, a pKi [2] of 7.07 and a pKi [3] of 7.58. The pKi [4] was 7.74.

Work on `C[C@@H](O)c1nc2cnc3[nH]ccc3c2n1C1CCN(Cc2ccn(C)n2)CC1` [Example 825, (R)-1-{1-[1-(1-Methyl-1H-pyrazol-3-ylmethyl)-piperidin-4-yl]-1,6-dihydro-1,3,5,6-tetraaza-as-indacen-2-yl}-ethanol] yielded a pKi [1] of 7.59, a pKi [2] of 6.46 and a pKi [3] of 6.84. It also gave a pKi [4] of 5.71.

`C[C@H](O)c1nc2cnc3[nH]ccc3c2n1[C@@H]1CCCN(C(=O)CC(F)(F)F)C1` [Example 782, 3,3,3-Trifluoro-1-{(R)-3-[2-((S)-1-hydroxy-ethyl)-6H-1,3,5,6-tetraaza-as-indacen-1-yl]-piperidin-1-yl}-propan-1-one] gave a pKi [1] of 6.54, a pKi [2] of 5.83 and a pKi [3] of 5.53. It also gave a pKi [4] of 5.52.

Work on `COCC(=O)NC1CCCC(n2cnc3cnc4[nH]ccc4c32)C1` (single isomer, unassigned) [Example 481, 2-Methoxy-N-[3-(6H-1,3,5,6-tetraaza-as-indacen-1-yl)-cyclohexyl]-acetamide] yielded a pKi [1] of 6.90, a pKi [2] of 6.57 and a pKi [3] of 6.08. It also gave a pKi [4] of 6.10.

Compound `c1cc2c(ncc3ncn(C4CCCNCC4)c32)[nH]1` (racemic) [Example 489, 1-Azepan-4-yl-1,6-dihydro-1,3,5,6-tetraaza-as-indacene] has a pKi [1] of 7.47, a pKi [2] of 6.50 and a pKi [3] of 6.49. The pKi [4] was 6.22.

Work on `CNc1nc2cnc3[nH]ccc3c2n1C1CCN(CCC#N)CC1` [Example 771, 3-[4-(2-Methylamino-6H-1,3,5,6 tetraaza-asindacen-1-yl)-piperidin-1-yl]-propionitrile] yielded a pKi [1] of 8.69, a pKi [2] of 8.18 and a pKi [3] of 7.72. The pKi [4] was 7.56.

Compound `N#CCCN1CCC(n2c(CNC(=O)c3cccnc3)nc3cnc4[nH]ccc4c32)CC1` [Example 494, N-{1-[1-(2-Cyano-ethyl)-piperidin-4-yl]-1,6-dihydro-1,3,5,6-tetraaza-as-indacen-2-ylmethyl}-nicotinamide] has a pKi [1] of 8.33, a pKi [2] of 7.63 and a pKi [3] of 7.73. For the same compound, the pKi [4] was 7.21.

`N#CCCN1CCC(n2c(CCn3cncn3)nc3cnc4[nH]ccc4c32)CC1` [Example 386, 3-{4-[2-(2-[1,2,4]Triazol-1-yl-ethyl)-6H-1,3,5,6-tetraaza-as-indacen-1-yl]-piperidin-1-yl}-propionitrile] showed a pKi [1] of 7.75, a pKi [2] of 7.19 and a pKi [3] of 7.10. The pKi [4] was 6.50.

`c1cc2c(ncc3ncn([C@@H]4CCCNC4)c32)[nH]1` [Example 2, (R)-1-Piperidin-3-yl-1,6-dihydro-1,2,3,5,6-tetraaza-as-indacene] was tested, and the pKi [1] was 6.75, the pKi [2] was 6.29 and the pKi [3] was 6.04. The pKi [4] was 5.82.

`c1cc2c(ncc3ncn([C@@H]4CCCN(Cc5cocn5)C4)c32)[nH]1` [Example 8, 1-((R)-1-Oxazol-4-ylmethyl-piperidin-3-yl)-1,6-dihydro-1,2,3,5,6-tetraaza-as-indacene] gave a pKi [1] of 7.89, a pKi [2] of 7.36 and a pKi [3] of 7.16. The pKi [4] was 6.87.

Work on `CC(CC#N)N1CCC(n2c(C3CCOCC3)nc3cnc4[nH]ccc4c32)CC1` (racemic) [Example 393, 3-{4-[2-(Tetrahydro-pyran-4-yl)-6H-1,3,5,6-tetraaza-as-indacen-1-yl]-piperidin-1-yl}-butyronitrile] yielded a pKi [1] of 7.34, a pKi [2] of 7.35 and a pKi [3] of 7.52. For the same compound, the pKi [4] was 6.42.

In the case of `N#CCC[C@H]1CC[C@H](n2c(CO)nc3cnc4[nH]ccc4c32)CC1` [Example 646, 3-[4-(2-hydroxymethyl-6H-1,2,3,5,6-tetraaza-as-indacen-1-yl)-cyclohexyl]-propionitrile], the pKi [1] was 9.28, the pKi [2] was 8.69 and the pKi [3] was 8.04. For the same compound, the pKi [4] was 8.83.

`CC(O)c1nc2cnc3[nH]ccc3c2n1C1CC2CCC1O2` (single isomer, unassigned) [Example 846, endo-1-[1-(7-Oxa-bicyclo[2.2.1]hept-2-yl)-1,6-dihydro-1,3,5,6-tetraaza-as-indacen-2-yl]-ethanol] gave a pKi [1] of 7.04, a pKi [2] of 6.43 and a pKi [3] of 6.58. The pKi [4] was 6.13.
